Assay results published in patent publication US11207331B2, “Agents, compositions and methods for enhancing neurological function” (University of Southern California, priority 2007, dated 2021).

Key:
hippocampal neural cells [1] = assay: Mitotic appearance (doublet cell body) of cultured hippocampal neural cells; type: cell-based, rat
Protocol: Hippocampal neural cells were obtained from an embryonic day 18 rat hippocampus. The samples contained approximately 12,000 neurons/sample. The sample was 95% neuronal. No selection for neuronal subtypes was conducted. Hippocampal neurons were treated with 3α-hydroxy-5α-pregnan-20-one (THP). 3α-hydroxy-5α-pregnan-20-one (THP) was added to two samples containing hippocampal neural cells at a concentration of either 10 nanomolar (nM) and 100 nanomolar (nM). The cells were incubated for 24 hrs at 37° C. Neurons were grown in a defined medium, Neurobasal+B27 supplement in the absence (control) or presence of THP or other test molecule (experimental). The samples with added THP were compared with a control sample containing only hippocampal neural cells. Changes in the mitotic appearance of the neural cells were observed. A mitotic appearance of a particular neural cell is defined as a doublet form in the cell body of the neural cell. The doublet form is indicative of a neural cell undergoing mitosis.
The experiment described above was repeated only THP was added to three samples containing hippocampal neural cells at a concentration of 100 nanomolar (nM), 250 nM and 500 nM. The samples with added THP were compared with a control sample containing only hippocampal neural cells. […] Data are expressed as percent of mean+SEM,**p<0.01, ***p<. 001.

hippocampal neurons = assay: Total number of hippocampal neurons; type: cell-based, rat; conditions: primary hippocampal neurons
Source text: Having determined that THP increases the expression of the cell proliferating markers, a determination was sought as to whether the increase in cell proliferation markers translated into an increase in neuronal number. […] As shown in FIGS. 6A-6C, THP increases neuron number as assessed in MuLV-GFP infected mouse neurons. The effect of THP on HT-22 cells proliferation was detected on MuLV infected cells.

hippocampal neural cells [2] = assay: 3H-thymidine uptake in cultured hippocampal neural cells; type: cell-based, rat; conditions: from about 0.1 nm to about 250 nm THP
Protocol: Biochemical analyses of 3H-thymidine uptake, as a measure of DNA synthesis, were used as the experimental vehicle to confirm the morphological observations described in examples 1 and 2. […] Thus, the range for the neurogenic effect of THP on neural cells is quite is sensitive and quite broad.
For these experiments, cultured hippocampal neural cells, derived from embryonic day 18 rat fetuses, were allowed to adhere to polylysine coated plastic cover-slips for 40 min in serum containing medium. Following adhesion, neurons were exposed to […] 3H-thymidine in the presence or absence of 100-500 nM THP and allowed to incubate at 37° C. for 24 hours in the absence or presence of the indicated steroids. Data are expressed as mean+SEM, *p<. 05,**p<0.01, ***p<0.001.
The time course of THP-induced 3H-thymidine incorporation in hippocampal neuronal cells is shown in FIG. 9 where cultured hippocampal nerve cells, derived from embryonic day 18 rat fetuses, were allowed to adhere to polylysine coated plastic cover-slips for 40 min in serum containing medium. Following adhesion, serum containing medium in the presence or absence of 10-250 nM THP plus […] 3H-thymidine and allowed to incubate at 37 for 1, 8 or 24 hours. Data are expressed as mean±SEM, *p<0.05,**p<0.01,***p<0.001.

[3] = test system: neural stem cells derived from human fetal cortex; assay: BrdU chemiluminescence ELISA in human neural stem cells; type: cell-based; conditions: 250 and 500 nM, 24 hours
Protocol: Another experiment was performed to assess the neurogenic effects of THP administration on human neural stem cells. In this experiment, neural stem cells derived from human fetal cortex were treated with varying concentrations of THP [1-1000 nM] or with bFGF [20 ng/ml]+heparin [[…]] as a THP positive control. The proliferation marker, BrdU [10 uM] was added simultaneously with test molecules and the cells were incubated at 37° C. for 24 hours.

[4] = test system: Beta amyloid binding alcohol dehydrogenase (ABAD); assay: ABAD expression (Western blot, antibody ERAB); type: in vivo, mouse
Protocol: (§1) Further studies were conducted using a dosing regime of once a week for six months administered subcutaneously. Three and six months old 3×Tg-AD and age-matched non-Tg mice were chosen for the experiments, since AD pathology (Aβ) starts development at 3-month and abundant accumulation at 6-months. Allopregnanolone was subcutaneously (s.c.) administrated with 10 mg/kg once per week for 6 months. For neurogenesis and neurosurvival study, BrdU, IdU and CIdU were intraperitoneal (i.p.) injected at the first 5 days, mid 5 days and 5 days before sacrifice during 6-month treatment. After 6 months of allopregnanolone treatment, mice, at 9- and 12-month old, were sacrificed.
Beta amyloid binding alcohol dehydrogenase (ABAD) was probed with antibody ERAB (1:500, Abcam). […] Immunofluorescent staining using goat polyclonal anti-ERAB (Santa Cruz) confirmed the results obtained by Western Blot analysis. The concentration of ABAD immunoactive cells is less in THP-treated brains than in the brains treated with the vehicle.

CNPase = CNPase expression (myelination marker); type: in vivo, mouse
Protocol: as §1
Immunofluorescent staining shown the immunoreactivity increased in CA1, entorhinal cortex, and primary somatosensory cortex.

[5] = test system: three month old male 3×TgAD mouse hippocampus; assay: Flow cytometry of BrdU labeled cells 24 hours after subcutaneous or transdermal THP; type: in vivo
Protocol: Flow cytometry assay detected total BrdU labeled cells 24 hours following THP administration via (A) subcutaneous and (B) transdermal routes. […] BrdU (100 mg/kg) was administered by intraperitoneal injection one hour after THP administration. Transdermal gel THP dose-response for 5, 10, and 50 mg/kg (FIG. 21B) was compared to 0 mg/kg control vehicle (negative control) and subcutaneous injection of 10 mg/kg (positive control) (FIG. 21A). […] Immunoblots of proliferating cell nuclear antigen (PCNA), an S-phase marker and cyclin dependent kinase 1 (CDK1/cdc2), an M-phase marker, are shown in FIGS. 21C and 21D, respectively. Hippocampus protein expression of PCNA and CDK1/cdc2 was normalized to β-tubulin loading control and compared relative to the vehicle control by immunoblot. […] The data were analyzed by one way ANOVA followed by a t test (two samples assuming equal variance) vs. vehicle. Data are presented as the mean±SEM, n=5, *=P<0.05, and **=P<0.01.

In the case of CC(=O)[C@H]1CC[C@H]2[C@@H]3CC[C@H]4C[C@H](O)CC[C@]4(C)[C@H]3CC[C@]12C [THP, 3α-hydroxy-5α-pregnan-20-one], the “fold increase in the mitotic phenotype of the neural cells vs control” value (hippocampal neural cells [1]; 10 nM or 100 nM THP, 24 hrs) is reported as roughly 2 fold, the “concentration with greatest induction of the mitotic phenotype” value (hippocampal neural cells [1]; 100, 250, 500 nM tested) is reported as 500 nm and the “fold increase in the mitotic phenotype of the neural cells vs control” value (hippocampal neural cells [1]; 100, 250 and 500 nM THP) is reported as 2-3 fold. For the same molecule, the “increase in neuron number” value (hippocampal neurons) was “approximately 30%”, the “increase in 3H-thymidine uptake relative to control” value (hippocampal neural cells [2]) was 80% and the “BrdU chemiluminescence compared with positive control bFGF+heparin” value [3] was “consistently greater than the positive control bFGF+heparin”. For the same molecule, the “BrdU chemiluminescence relative to vehicle control” value [3] was “significantly increased”, the “decrease in ABAD level relative to vehicle” value ([4]; 9-month 3×Tg mice) was 30±4% and the “decrease in ABAD level relative to vehicle” value ([4]; 12-month 3×Tg mice) was 20±7%. The “CNPase expression, Western blot” value (CNPase; 9-month nonTg mice and 3×TgAD mice) was “increased CNPase expression”, the “CNPase expression, Western blot” value (CNPase; 12-month 3×TgAD mice) was “trended towards an increase” and the “CNPase expression, Western blot” value (CNPase; 12-month non-Tg mice) was “no significant difference”. For the same molecule, the “BrdU cell numbers vs vehicle” value ([5]; 10 mg/kg dose) was “significantly increases BrdU cell numbers” and the “optimal dose to significantly increase BrdU cell numbers” value ([5]; subcutaneous and transdermal routes) was 10 mg/kg.
